{"source": "ChEMBL document CHEMBL1150278", "about": "“Thiocamptothecin” (J Med Chem, 2008)", "key": {"NCI-H460 [1]": {"system": "NCI-H460", "experiment": "Cytotoxicity against human H460 cells after 1 hr", "type": "functional, cell-based", "conditions": "NCI-H460, 1 h"}, "NCI-H460 [2]": {"system": "NCI-H460", "experiment": "Cytotoxicity against human H460 cells after 72 hrs", "type": "functional, cell-based", "conditions": "NCI-H460, 72 h"}, "IGROV-1 [3]": {"system": "IGROV-1", "experiment": "Cytotoxicity against human IGROV1 cells after 1 hr", "type": "functional, cell-based", "conditions": "IGROV-1, 1 h"}, "IGROV-1 [4]": {"system": "IGROV-1", "experiment": "Cytotoxicity against human IGROV1 cells after 72 hrs", "type": "functional, cell-based", "conditions": "IGROV-1, 72 h"}, "HT-29 [5]": {"system": "HT-29", "experiment": "Cytotoxicity against human HT29 cells after 1 hr", "type": "functional, cell-based", "conditions": "HT-29, 1 h"}, "HT-29 [6]": {"system": "HT-29", "experiment": "Cytotoxicity against human mitoxantrone-resistant HT29 cells after 1 hr", "type": "functional, cell-based", "conditions": "HT-29, 1 h"}, "Homo sapiens": {"species": "Homo sapiens", "experiment": "Stimulation of human recombinant topoisomerase 1B-mediated SV40 DNA cleavage"}}, "note": "Activity calls are given as the source filed them. The rule behind the calls is not given here.", "data": [{"smiles": "CC[C@@]1(O)C(=O)OCc2c1cc1n(c2=S)Cc2cc3ccccc3nc2-1", "values": [{"measurement": "IC50", "setting": "NCI-H460 [1]", "result": 0.14, "unit": "µM"}, {"measurement": "IC50", "setting": "NCI-H460 [2]", "result": 0.0074, "unit": "µM"}, {"measurement": "IC50", "setting": "IGROV-1 [3]", "result": 0.22, "unit": "µM"}, {"measurement": "IC50", "setting": "IGROV-1 [4]", "result": 0.00467, "unit": "µM"}, {"measurement": "IC50", "setting": "HT-29 [5]", "result": 0.17, "unit": "µM"}, {"measurement": "IC50", "setting": "HT-29 [6]", "result": 0.11, "unit": "µM"}, {"measurement": "Activity", "setting": "Homo sapiens", "result": "Active"}]}, {"smiles": "CC[C@@]1(O)C(=O)OCc2c1cc1n(c2=O)Cc2cc3ccccc3nc2-1", "note": "[CAMPTOTHECIN]", "values": [{"measurement": "IC50", "setting": "NCI-H460 [2]", "result": 0.0062, "unit": "µM"}, {"measurement": "IC50", "setting": "IGROV-1 [3]", "result": 1.65, "unit": "µM"}, {"measurement": "IC50", "setting": "IGROV-1 [4]", "result": 0.012, "unit": "µM"}]}]}
